From BigSolDB 2.1

CC1(C)COP(=O)(O)OC1c1ccccc1Cl (centres undefined)
solubility (mole fraction) (in acetic acid, 293.15 K): 0.00131 | solubility (mole fraction) (in acetic acid, 298.15 K): 0.00156 | solubility (mole fraction) (in acetic acid, 303.15 K): 0.00186 | solubility (mole fraction) (in acetic acid, 308.15 K): 0.00221 | solubility (mole fraction) (in acetic acid, 313.15 K): 0.0025 | solubility (mole fraction) (in acetic acid, 318.15 K): 0.00277 | solubility (mole fraction) (in acetic acid, 323.15 K): 0.00341 | solubility (mole fraction) (in acetic acid, 328.15 K): 0.0039 | solubility (mole fraction) (in acetic acid, 333.15 K): 0.00449 | solubility (mole fraction) (in acetic acid, 338.15 K): 0.00523 | solubility (mole fraction) (in ethanol, 278.15 K): 0.00426 | solubility (mole fraction) (in ethanol, 283.15 K): 0.00473 | solubility (mole fraction) (in ethanol, 288.15 K): 0.00536 | solubility (mole fraction) (in ethanol, 293.15 K): 0.00614 | solubility (mole fraction) (in ethanol, 298.15 K): 0.00685 | solubility (mole fraction) (in ethanol, 303.15 K): 0.00783 | solubility (mole fraction) (in ethanol, 308.15 K): 0.00884 | solubility (mole fraction) (in ethanol, 313.15 K): 0.00995 | solubility (mole fraction) (in ethanol, 318.15 K): 0.0121 | solubility (mole fraction) (in ethanol, 323.15 K): 0.0135 | solubility (mole fraction) (in isopropanol, 278.15 K): 0.0114 | solubility (mole fraction) (in isopropanol, 283.15 K): 0.0135 | solubility (mole fraction) (in isopropanol, 288.15 K): 0.016 | solubility (mole fraction) (in isopropanol, 293.15 K): 0.0176 | solubility (mole fraction) (in isopropanol, 298.15 K): 0.0207 | solubility (mole fraction) (in isopropanol, 303.15 K): 0.0251 | solubility (mole fraction) (in isopropanol, 308.15 K): 0.029 | solubility (mole fraction) (in isopropanol, 313.15 K): 0.0342 | solubility (mole fraction) (in isopropanol, 318.15 K): 0.0391 | solubility (mole fraction) (in isopropanol, 323.15 K): 0.0448 | solubility (mole fraction) (in methanol, 278.15 K): 0.00445 | solubility (mole fraction) (in methanol, 283.15 K): 0.00519 | solubility (mole fraction) (in methanol, 288.15 K): 0.00572 | solubility (mole fraction) (in methanol, 293.15 K): 0.00644 | solubility (mole fraction) (in methanol, 298.15 K): 0.00713 | solubility (mole fraction) (in methanol, 303.15 K): 0.00809 | solubility (mole fraction) (in methanol, 308.15 K): 0.00892 | solubility (mole fraction) (in methanol, 313.15 K): 0.0105 | solubility (mole fraction) (in methanol, 318.15 K): 0.0125 | solubility (mole fraction) (in methanol, 323.15 K): 0.0145 | solubility (mole fraction) (in tert-butanol, 303.15 K): 0.0228 | solubility (mole fraction) (in tert-butanol, 308.15 K): 0.0281 | solubility (mole fraction) (in tert-butanol, 313.15 K): 0.0313 | solubility (mole fraction) (in tert-butanol, 318.15 K): 0.0359 | solubility (mole fraction) (in tert-butanol, 323.15 K): 0.0398 | solubility (mole fraction) (in tert-butanol, 328.15 K): 0.0469 | solubility (mole fraction) (in tert-butanol, 333.15 K): 0.051 | solubility (mole fraction) (in tert-butanol, 338.15 K): 0.0574 | solubility (mole fraction) (in tert-butanol, 343.15 K): 0.0629 | solubility (mole fraction) (in tert-butanol, 348.15 K): 0.0691 | solubility (mole fraction) (in water, 278.15 K): 0.000124 | solubility (mole fraction) (in water, 283.15 K): 0.000123 | solubility (mole fraction) (in water, 288.15 K): 0.000136 | solubility (mole fraction) (in water, 293.15 K): 0.000157 | solubility (mole fraction) (in water, 298.15 K): 0.000162 | solubility (mole fraction) (in water, 303.15 K): 0.000164 | solubility (mole fraction) (in water, 308.15 K): 0.000166 | solubility (mole fraction) (in water, 313.15 K): 0.000168 | solubility (mole fraction) (in water, 318.15 K): 0.00017
